Data from ChEMBL document CHEMBL5365500, “Development and Antibacterial Properties of 4-[4-(Anilinomethyl)-3-phenylpyrazol-1-yl]benzoic Acid Derivatives as Fatty Acid Biosynthesis Inhibitors” (J Med Chem, 2023).
In brackets after ≈: the same amount, converted by molar mass.

Experiments:
Type in all cases: functional
Conditions in all cases: time 20-24 hrs
[1] = system: Staphylococcus epidermidis; assay: Antimicrobial activity against antibiotic-resistant Staphylococcus epidermidis ATCC 700296 assessed as inhibition of visible growth measured after 20 to 24 hrs incubation by CLSI method
Enterococcus faecium = assay: Antimicrobial activity against antibiotic-resistant Enterococcus faecium ATCC 700221 assessed as inhibition of visible growth measured after 20 to 24 hrs incubation by CLSI method
Staphylococcus aureus [2] = assay: Antimicrobial activity against antibiotic-resistant Staphylococcus aureus ATCC 33591 assessed as inhibition of visible growth measured after 20 to 24 hrs incubation by CLSI method
Staphylococcus aureus [3] = assay: Antimicrobial activity against antibiotic-resistant Staphylococcus aureus ATCC 33592 assessed as inhibition of visible growth measured after 20 to 24 hrs incubation by CLSI method
Enterococcus faecalis [4] = assay: Antimicrobial activity against antibiotic-resistant Enterococcus faecalis ATCC 51299 assessed as inhibition of visible growth measured after 20 to 24 hrs incubation by CLSI method
Bacillus subtilis = assay: Antimicrobial activity against antibiotic-resistant Bacillus subtilis ATCC 6623 assessed as inhibition of visible growth measured after 20 to 24 hrs incubation by CLSI method
Staphylococcus aureus [5] = assay: Antimicrobial activity against Staphylococcus aureus ATCC 25923 assessed as inhibition of visible growth measured after 20 to 24 hrs incubation by CLSI method
Staphylococcus aureus [6] = assay: Antimicrobial activity against antibiotic-resistant Staphylococcus aureus ATCC BAA-2312 assessed as inhibition of visible growth measured after 20 to 24 hrs incubation by CLSI method
Staphylococcus aureus [7] = assay: Antimicrobial activity against antibiotic-resistant Staphylococcus aureus ATCC 700699 assessed as inhibition of visible growth measured after 20 to 24 hrs incubation by CLSI method
Enterococcus faecalis [8] = assay: Antimicrobial activity against antibiotic-susceptible Enterococcus faecalis ATCC 29212 assessed as inhibition of visible growth measured after 20 to 24 hrs incubation by CLSI method

O=C(O)c1ccc(-n2cc(CNc3ccc(Cl)cc3)c(-c3ccc(F)c(F)c3)n2)cc1
MIC [1]: > 32 µg/mL | MIC (Enterococcus faecium): > 32 µg/mL | MIC (Staphylococcus aureus [2]): > 32 µg/mL | MIC (Staphylococcus aureus [3]): > 32 µg/mL | MIC (Enterococcus faecalis [4]): > 32 µg/mL | MIC (Bacillus subtilis): 4 µg/mL (≈ 9.09 µM) | MIC (Staphylococcus aureus [5]): > 32 µg/mL | MIC (Staphylococcus aureus [6]): > 32 µg/mL | MIC (Staphylococcus aureus [7]): > 32 µg/mL | MIC (Enterococcus faecalis [8]): > 32 µg/mL

O=C(O)c1ccc(-n2cc(CNc3cccc(C(F)(F)F)c3)c(-c3ccc(F)c(F)c3)n2)cc1
MIC [1]: 8 µg/mL (≈ 16.9 µM) | MIC (Enterococcus faecium): 4 µg/mL (≈ 8.45 µM) | MIC (Staphylococcus aureus [2]): 1 µg/mL (≈ 2.11 µM) | MIC (Staphylococcus aureus [3]): 4 µg/mL (≈ 8.45 µM) | MIC (Enterococcus faecalis [4]): 8 µg/mL (≈ 16.9 µM) | MIC (Bacillus subtilis): 1 µg/mL (≈ 2.11 µM) | MIC (Staphylococcus aureus [5]): 4 µg/mL (≈ 8.45 µM) | MIC (Staphylococcus aureus [6]): 2 µg/mL (≈ 4.22 µM) | MIC (Staphylococcus aureus [7]): 8 µg/mL (≈ 16.9 µM) | MIC (Enterococcus faecalis [8]): 8 µg/mL (≈ 16.9 µM)

O=C(O)c1ccc(-n2cc(CNc3ccc(Cl)c(Cl)c3)c(-c3ccc(F)c(F)c3)n2)cc1
MIC [1]: 2 µg/mL (≈ 4.22 µM) | MIC (Enterococcus faecium): 2 µg/mL (≈ 4.22 µM) | MIC (Staphylococcus aureus [2]): 0.5 µg/mL (≈ 1.05 µM) | MIC (Staphylococcus aureus [3]): 1 µg/mL (≈ 2.11 µM) | MIC (Enterococcus faecalis [4]): 8 µg/mL (≈ 16.9 µM) | MIC (Bacillus subtilis): 0.5 µg/mL (≈ 1.05 µM) | MIC (Staphylococcus aureus [5]): 1 µg/mL (≈ 2.11 µM) | MIC (Staphylococcus aureus [6]): 1 µg/mL (≈ 2.11 µM) | MIC (Staphylococcus aureus [7]): 2 µg/mL (≈ 4.22 µM) | MIC (Enterococcus faecalis [8]): 4 µg/mL (≈ 8.43 µM)

NS(=O)(=O)c1ccc(NCc2cn(-c3ccc(C(=O)O)cc3)nc2-c2ccc(F)cc2)cc1
MIC [1]: 16 µg/mL (≈ 34.3 µM) | MIC (Enterococcus faecium): > 32 µg/mL | MIC (Staphylococcus aureus [2]): > 32 µg/mL | MIC (Staphylococcus aureus [3]): > 32 µg/mL | MIC (Enterococcus faecalis [4]): > 32 µg/mL | MIC (Bacillus subtilis): > 32 µg/mL | MIC (Staphylococcus aureus [5]): > 32 µg/mL | MIC (Staphylococcus aureus [6]): > 32 µg/mL | MIC (Staphylococcus aureus [7]): > 32 µg/mL | MIC (Enterococcus faecalis [8]): > 32 µg/mL

O=C(O)c1ccc(-n2cc(CNc3cc(Cl)ccc3Cl)c(-c3cccc(F)c3)n2)cc1
MIC [1]: 32 µg/mL (≈ 70.1 µM) | MIC (Enterococcus faecium): 32 µg/mL (≈ 70.1 µM) | MIC (Staphylococcus aureus [2]): 32 µg/mL (≈ 70.1 µM) | MIC (Staphylococcus aureus [3]): 32 µg/mL (≈ 70.1 µM) | MIC (Enterococcus faecalis [4]): 32 µg/mL (≈ 70.1 µM) | MIC (Bacillus subtilis): 8 µg/mL (≈ 17.5 µM) | MIC (Staphylococcus aureus [5]): 32 µg/mL (≈ 70.1 µM) | MIC (Staphylococcus aureus [6]): 16 µg/mL (≈ 35.1 µM) | MIC (Staphylococcus aureus [7]): 32 µg/mL (≈ 70.1 µM) | MIC (Enterococcus faecalis [8]): 32 µg/mL (≈ 70.1 µM)

O=C(O)c1ccc(-n2cc(CNc3cccc(OC(F)(F)F)c3)c(-c3ccc(F)cc3)n2)cc1
MIC [1]: 8 µg/mL (≈ 17 µM) | MIC (Enterococcus faecium): 16 µg/mL (≈ 33.9 µM) | MIC (Staphylococcus aureus [2]): 2 µg/mL (≈ 4.24 µM) | MIC (Staphylococcus aureus [3]): 8 µg/mL (≈ 17 µM) | MIC (Enterococcus faecalis [4]): 16 µg/mL (≈ 33.9 µM) | MIC (Bacillus subtilis): 2 µg/mL (≈ 4.24 µM) | MIC (Staphylococcus aureus [5]): 4 µg/mL (≈ 8.49 µM) | MIC (Staphylococcus aureus [6]): 4 µg/mL (≈ 8.49 µM) | MIC (Staphylococcus aureus [7]): 8 µg/mL (≈ 17 µM) | MIC (Enterococcus faecalis [8]): 16 µg/mL (≈ 33.9 µM)

O=C(O)c1ccc(-n2cc(CNc3cc(Cl)cc(C(F)(F)F)c3)c(-c3cccc(F)c3)n2)cc1
MIC [1]: 4 µg/mL (≈ 8.17 µM) | MIC (Enterococcus faecium): 2 µg/mL (≈ 4.08 µM) | MIC (Staphylococcus aureus [2]): 1 µg/mL (≈ 2.04 µM) | MIC (Staphylococcus aureus [3]): 1 µg/mL (≈ 2.04 µM) | MIC (Enterococcus faecalis [4]): 2 µg/mL (≈ 4.08 µM) | MIC (Bacillus subtilis): 0.5 µg/mL (≈ 1.02 µM) | MIC (Staphylococcus aureus [5]): 2 µg/mL (≈ 4.08 µM) | MIC (Staphylococcus aureus [6]): 1 µg/mL (≈ 2.04 µM) | MIC (Staphylococcus aureus [7]): 2 µg/mL (≈ 4.08 µM) | MIC (Enterococcus faecalis [8]): 4 µg/mL (≈ 8.17 µM)

O=C(O)c1ccc(-n2cc(CNc3ccc(Oc4ccccc4)cc3)c(-c3ccc(F)c(F)c3)n2)cc1
MIC [1]: 2 µg/mL (≈ 4.02 µM) | MIC (Enterococcus faecium): 2 µg/mL (≈ 4.02 µM) | MIC (Staphylococcus aureus [2]): 1 µg/mL (≈ 2.01 µM) | MIC (Staphylococcus aureus [3]): 2 µg/mL (≈ 4.02 µM) | MIC (Enterococcus faecalis [4]): 4 µg/mL (≈ 8.04 µM) | MIC (Bacillus subtilis): 1 µg/mL (≈ 2.01 µM) | MIC (Staphylococcus aureus [5]): 1 µg/mL (≈ 2.01 µM) | MIC (Staphylococcus aureus [6]): 1 µg/mL (≈ 2.01 µM) | MIC (Staphylococcus aureus [7]): 2 µg/mL (≈ 4.02 µM) | MIC (Enterococcus faecalis [8]): 4 µg/mL (≈ 8.04 µM)

O=C(O)c1ccc(-n2cc(CNc3ccc(F)c(Cl)c3)c(-c3cccc(F)c3)n2)cc1
MIC [1]: 16 µg/mL (≈ 36.4 µM) | MIC (Enterococcus faecium): 32 µg/mL (≈ 72.8 µM) | MIC (Staphylococcus aureus [2]): 8 µg/mL (≈ 18.2 µM) | MIC (Staphylococcus aureus [3]): 16 µg/mL (≈ 36.4 µM) | MIC (Enterococcus faecalis [4]): 32 µg/mL (≈ 72.8 µM) | MIC (Bacillus subtilis): 4 µg/mL (≈ 9.09 µM) | MIC (Staphylococcus aureus [5]): 16 µg/mL (≈ 36.4 µM) | MIC (Staphylococcus aureus [6]): 8 µg/mL (≈ 18.2 µM) | MIC (Staphylococcus aureus [7]): 16 µg/mL (≈ 36.4 µM) | MIC (Enterococcus faecalis [8]): 32 µg/mL (≈ 72.8 µM)

O=C(O)c1ccc(-n2cc(CNc3ccc(F)c(Cl)c3)c(-c3ccc(F)c(F)c3)n2)cc1
MIC [1]: 8 µg/mL (≈ 17.5 µM) | MIC (Enterococcus faecium): 8 µg/mL (≈ 17.5 µM) | MIC (Staphylococcus aureus [2]): 2 µg/mL (≈ 4.37 µM) | MIC (Staphylococcus aureus [3]): 8 µg/mL (≈ 17.5 µM) | MIC (Enterococcus faecalis [4]): 32 µg/mL (≈ 69.9 µM) | MIC (Bacillus subtilis): 2 µg/mL (≈ 4.37 µM) | MIC (Staphylococcus aureus [5]): 8 µg/mL (≈ 17.5 µM) | MIC (Staphylococcus aureus [6]): 4 µg/mL (≈ 8.74 µM) | MIC (Staphylococcus aureus [7]): 8 µg/mL (≈ 17.5 µM) | MIC (Enterococcus faecalis [8]): 16 µg/mL (≈ 34.9 µM)

O=C(O)c1ccc(-n2cc(CNc3cccc(OC(F)(F)F)c3)c(-c3ccc(F)c(F)c3)n2)cc1
MIC [1]: 8 µg/mL (≈ 16.3 µM) | MIC (Enterococcus faecium): 4 µg/mL (≈ 8.17 µM) | MIC (Staphylococcus aureus [2]): 1 µg/mL (≈ 2.04 µM) | MIC (Staphylococcus aureus [3]): 4 µg/mL (≈ 8.17 µM) | MIC (Enterococcus faecalis [4]): 8 µg/mL (≈ 16.3 µM) | MIC (Bacillus subtilis): 1 µg/mL (≈ 2.04 µM) | MIC (Staphylococcus aureus [5]): 4 µg/mL (≈ 8.17 µM) | MIC (Staphylococcus aureus [6]): 2 µg/mL (≈ 4.09 µM) | MIC (Staphylococcus aureus [7]): 4 µg/mL (≈ 8.17 µM) | MIC (Enterococcus faecalis [8]): 8 µg/mL (≈ 16.3 µM)

O=C(O)c1ccc(-n2cc(CNc3ccc(F)c(C(F)(F)F)c3)c(-c3ccc(F)cc3)n2)cc1
MIC [1]: 8 µg/mL (≈ 16.9 µM) | MIC (Enterococcus faecium): 16 µg/mL (≈ 33.8 µM) | MIC (Staphylococcus aureus [2]): 2 µg/mL (≈ 4.22 µM) | MIC (Staphylococcus aureus [3]): 4 µg/mL (≈ 8.45 µM) | MIC (Enterococcus faecalis [4]): 16 µg/mL (≈ 33.8 µM) | MIC (Bacillus subtilis): 2 µg/mL (≈ 4.22 µM) | MIC (Staphylococcus aureus [5]): 4 µg/mL (≈ 8.45 µM) | MIC (Staphylococcus aureus [6]): 4 µg/mL (≈ 8.45 µM) | MIC (Staphylococcus aureus [7]): 8 µg/mL (≈ 16.9 µM) | MIC (Enterococcus faecalis [8]): 16 µg/mL (≈ 33.8 µM)

O=C(O)c1ccc(-n2cc(CNc3ccc(Cl)c(Cl)c3)c(-c3cccc(F)c3)n2)cc1
MIC [1]: 4 µg/mL (≈ 8.77 µM) | MIC (Enterococcus faecium): 4 µg/mL (≈ 8.77 µM) | MIC (Staphylococcus aureus [2]): 1 µg/mL (≈ 2.19 µM) | MIC (Staphylococcus aureus [3]): 4 µg/mL (≈ 8.77 µM) | MIC (Enterococcus faecalis [4]): 8 µg/mL (≈ 17.5 µM) | MIC (Bacillus subtilis): 1 µg/mL (≈ 2.19 µM) | MIC (Staphylococcus aureus [5]): 2 µg/mL (≈ 4.38 µM) | MIC (Staphylococcus aureus [6]): 2 µg/mL (≈ 4.38 µM) | MIC (Staphylococcus aureus [7]): 2 µg/mL (≈ 4.38 µM) | MIC (Enterococcus faecalis [8]): 8 µg/mL (≈ 17.5 µM)
